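Each compound was tested at five concentrations against cells in 96-well plates for 48 hours. The concentration for 50% growth inhibition is given as GI50. TGI: concentration producing complete growth inhibition.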
Assays:
Experiment in all cases: growth of human tumour cells (NCI), 48 h
[1] = test system: HOP-62 NSCLC
[2] = test system: CAKI-1 renal
[3] = test system: A549 NSCLC
[4] = test system: MDA-MB-231 breast
[5] = test system: IGROV1 ovarian
[6] = test system: A498 renal
[7] = test system: KM12 colon
[8] = test system: TK-10 renal
[9] = test system: MOLT-4 leukemia
[10] = test system: RXF 393 renal
[11] = test system: NCI-H23 lung
[12] = test system: NCI-H522 lung
[13] = test system: MDA-MB-435
[14] = test system: HCT-116 colon
[15] = test system: SF-295 CNS
[16] = test system: SNB-19 CNS
[17] = test system: OVCAR-8 ovarian
[18] = test system: COLO 205 colon
[19] = test system: K-562 leukemia
[20] = test system: SF-539 CNS
[21] = test system: NCI-H226 lung
[22] = test system: HOP-92 NSCLC
[23] = test system: OVCAR-3 ovarian
[24] = test system: MALME-3M melanoma
[25] = test system: M14 melanoma
[26] = test system: LOX IMVI melanoma
[27] = test system: HS 578T breast
[28] = test system: HCC-2998 colon
[29] = test system: ACHN renal
[30] = test system: MCF7 breast
[31] = test system: UO-31 renal
[32] = test system: OVCAR-4 ovarian
[33] = test system: UACC-62 melanoma
[34] = test system: RPMI-8226 leukemia
[35] = test system: HL-60(TB) leukemia
[36] = test system: UACC-257 melanoma
[37] = test system: NCI/ADR-RES ovarian
[38] = test system: SK-MEL-5 melanoma
[39] = test system: DU-145 prostate
[40] = test system: CCRF-CEM leukemia
[41] = test system: U251 CNS
[42] = test system: HT29 colon
[43] = test system: SW-620 colon
[44] = test system: PC-3 prostate
[45] = test system: BT-549 breast
[46] = test system: SK-OV-3 ovarian
[47] = test system: NCI-H460 lung
[48] = test system: HCT-15 colon
[49] = test system: 786-0 renal
[50] = test system: SR leukemia
[51] = test system: SN12C renal
[52] = test system: SF-268 CNS
[53] = test system: OVCAR-5 ovarian
[54] = test system: SNB-75 CNS
[55] = test system: SK-MEL-28 melanoma
[56] = test system: EKVX NSCLC

N#CC1=C(N)Oc2c(ccc3ccccc23)C1c1cccs1 (centres undefined)
GI50 [1]: 0.0583 µM
TGI [1]: 18.5 µM
GI50 [2]: 0.0465 µM
TGI [2]: 16.1 µM
GI50 [3]: 0.0615 µM
TGI [3]: 14 µM
GI50 [4]: 0.14 µM
TGI [4]: 2.72 µM
GI50 [5]: 0.0825 µM
TGI [5]: 15.8 µM
GI50 [6]: 0.0232 µM
TGI [6]: 0.0843 µM
GI50 [7]: 0.0434 µM
TGI [7]: 3.45 µM
GI50 [8]: 0.0669 µM
TGI [8]: 20.2 µM
GI50 [9]: 0.0594 µM
TGI [9]: 14.6 µM
GI50 [10]: 0.0313 µM
TGI [10]: 21.8 µM
GI50 [11]: 0.0628 µM
TGI [11]: 12.7 µM
GI50 [12]: 0.0185 µM
TGI [12]: 0.0846 µM
GI50 [13]: 0.0168 µM
TGI [13]: 0.042 µM
GI50 [14]: 0.0502 µM
TGI [14]: 1.83 µM
GI50 [15]: 0.0511 µM
TGI [15]: 17 µM
GI50 [16]: 0.321 µM
TGI [16]: 20.7 µM
GI50 [17]: 0.055 µM
TGI [17]: 12.1 µM
GI50 [18]: 0.0716 µM
TGI [18]: 0.591 µM
GI50 [19]: 0.0321 µM
TGI [19]: 12 µM
GI50 [20]: 0.026 µM
TGI [20]: 0.0696 µM
GI50 [21]: 1.06 µM
TGI [21]: 19 µM
GI50 [22]: 0.0573 µM
TGI [22]: 14.1 µM
GI50 [23]: 0.0269 µM
TGI [23]: 0.0704 µM
GI50 [24]: 0.038 µM
TGI [24]: 24.3 µM
GI50 [25]: 0.0405 µM
TGI [25]: 11.9 µM
GI50 [26]: 0.0798 µM
TGI [26]: 14 µM
GI50 [27]: 0.0302 µM
TGI [27]: 14.1 µM
GI50 [28]: 0.132 µM
TGI [28]: 3.89 µM
GI50 [29]: 0.084 µM
TGI [29]: 14.8 µM
GI50 [30]: 0.0354 µM
TGI [30]: 13.9 µM
GI50 [31]: 0.0696 µM
TGI [31]: 17.5 µM
GI50 [32]: 0.43 µM
TGI [32]: 18.7 µM
GI50 [33]: 0.0647 µM
TGI [33]: 15.2 µM
GI50 [34]: 0.0329 µM
TGI [34]: 3.6 µM
GI50 [35]: 0.0283 µM
TGI [35]: 0.0793 µM
GI50 [36]: 0.0514 µM
TGI [36]: 22.2 µM
GI50 [37]: 0.0368 µM
TGI [37]: 6.07 µM
GI50 [38]: 0.0427 µM
TGI [38]: 5.2 µM
GI50 [39]: 0.0463 µM
TGI [39]: 1.03 µM
GI50 [40]: 0.0337 µM
TGI [40]: 11.4 µM
GI50 [41]: 0.0407 µM
TGI [41]: 11.3 µM
GI50 [42]: 0.0536 µM
TGI [42]: 1.12 µM
GI50 [43]: 0.0366 µM
TGI [43]: 15.2 µM
GI50 [44]: 0.041 µM
TGI [44]: 15 µM
GI50 [45]: 0.0688 µM
TGI [45]: 3.09 µM
GI50 [46]: 0.0565 µM
TGI [46]: 14.7 µM
GI50 [47]: 0.036 µM
TGI [47]: 0.662 µM
GI50 [48]: 0.0442 µM
TGI [48]: 10.9 µM
GI50 [49]: 0.0577 µM
TGI [49]: 11.5 µM
GI50 [50]: 0.0337 µM
TGI [50]: 7.81 µM
GI50 [51]: 0.0816 µM
TGI [51]: 12.9 µM
GI50 [52]: 0.0807 µM
TGI [52]: 10.1 µM
GI50 [53]: 0.129 µM
TGI [53]: 16.5 µM

COC1(OC)CC(CO)(CNc2nc(N)nc(Cl)c2C=O)C1
TGI [1]: > 100 µM
TGI [2]: > 100 µM
TGI [3]: > 100 µM
TGI [4]: 43.9 µM
TGI [5]: 48.3 µM
TGI [6]: > 100 µM
TGI [7]: > 100 µM
TGI [8]: > 100 µM
TGI [9]: 60.1 µM
TGI [10]: > 100 µM
TGI [11]: 48.5 µM
TGI [12]: 3.96 µM
TGI [13]: 85.9 µM
TGI [14]: > 100 µM
TGI [15]: > 100 µM
TGI [54]: > 100 µM
TGI [16]: > 100 µM
TGI [17]: > 100 µM
TGI [18]: > 100 µM
TGI [19]: 32.1 µM
TGI [20]: > 100 µM
TGI [21]: > 100 µM
TGI [22]: 36.2 µM
TGI [23]: > 100 µM
TGI [24]: > 100 µM
TGI [26]: 35.2 µM
TGI [27]: > 100 µM
TGI [28]: 84.5 µM
TGI [29]: 13 µM
TGI [30]: > 100 µM
TGI [31]: > 100 µM
TGI [55]: > 100 µM
TGI [32]: 90.4 µM
TGI [34]: > 100 µM
TGI [35]: 35.8 µM
TGI [36]: 71.6 µM
TGI [37]: 88.1 µM
TGI [38]: > 100 µM
TGI [39]: > 100 µM
TGI [40]: > 100 µM
TGI [41]: > 100 µM
TGI [42]: > 100 µM
TGI [43]: > 100 µM
TGI [44]: 77.4 µM
TGI [45]: > 100 µM
TGI [47]: > 100 µM
TGI [48]: > 100 µM
TGI [49]: > 100 µM
TGI [56]: 52.2 µM
TGI [50]: 79.5 µM
TGI [51]: > 100 µM
TGI [52]: > 100 µM
TGI [53]: > 100 µM
